Literature values as cited in patent US12102684B2, “Methods of making and using polyphenols complexed with a protein, peptide, amino acid, polysaccharide, disaccharide, or monosaccharide” (priority 2016, dated 2024).

Experiments:
[1] = previous studies

| SMILES | solubility in water | solubility in organic solvents (organic solvents (methanol, acetone, DMSO, etc.)) | oral clearance [1] |
| --- | --- | --- | --- |
| COc1cc([C@@H]2Oc3c(O)cc([C@H]4Oc5cc(O)cc(O)c5C(=O)[C@@H]4O)cc3[C@H]2CO)ccc1O [Silychristin] | water insoluble | – | – |
| Oc1ccc(/C=C/c2cc(O)cc(O)c2)cc1 [Resveratrol, 3,5,4′-trihydroxy-trans-stilbene] | 0.03 grams/liter | 16-50 grams/liter | – |
| COc1cc(/C=C/C(=O)CC(=O)/C=C/c2ccc(O)c(OC)c2)ccc1O [curcumin, (1E,6E)-1,7-bis(4hydroxy-3-methoxyphenyl)hepta-1,6-diene-3,5-dione] | very poor | – | 108.5 L/kg/h |
